Where a name gives a salt, the structure may show the parent alone.

Broadly, the melting point is the temperature of the solid-liquid transition. The term IC50 denotes the concentration that inhibits the measured activity by half. A low value points to greater potency.

The target in series [1] is muscarinic acetylcholine receptors. Briefly: Inhibition of specific binding of 3H-Oxotremorine-M (3H-Oxo) to rat cortex membranes. Conditions: rat cortex homogenate, 1.0 nM 3H-Oxotremorine, 30 min at 25° C. The text has this:
The pharmacological properties of the compounds of the invention can be illustrated by determining their capability to inhibit the specific binding of ^3H-Oxotremorine-M (^3H-Oxo). Birdsdall N. J. M., Hulme E. C., and Burgen A. S. V. (1980). “The Character of Muscarinic Receptors in Different Regions of the Rat Brain”. Proc. Roy. Soc. London (Series B) 207, 1.
^3H-Oxo labels muscarinic receptor in the CNS (with a preference for agonist domains of the receptors). Three different sites are labelled by ^3H-Oxo. […] Using the present experimental conditions only the high and medium affinity sites are determined.
The inhibitory effects of compounds on ^3H-Oxo binding reflects the affinity for muscarinic acetylcholine receptors.
All preparations are performed at 0-4° C. unless otherwise indicated. Fresh cortex (0.1-1 g) from male Wistar rats (150-250 g) is homogenized for 5-10 s in 10 ml 20 mM Hepes pH: 7.4, with an Ultra-Turrax homogenizer. The homogenizer is rinsed with 10 ml of buffer and the combined suspension centrifuged for 15 min. at 40,000×g. The pellet is washed three times with buffer. In each step the pellet is homogenized as before in 2×10 ml of buffer and centrifuged for 10 min. at 40,000×g.
The final pellet is homogenized in 20 mM Hepes pH: 7.4 (100 ml per g of original tissue) and used for binding assay. Aliquots of 0.5 ml is added 25 μl of test solution and 25 μl of ^3H-Oxotremorine (1.0 nM, final concentration) mixed and incubated for 30 min. at 25° C. Non-specific binding is determined in triplicate using arecoline (1 μg/ml, final concentration) as the test substance. After incubation samples are added 5 ml of ice-cold buffer and poured directly onto Whatman GF/C glass fiber filters under suction and immediately washed 2 times with 5 ml of ice-cold buffer. The amount of radioactivity on the filters are determined by conventional liquid scintillation counting. Specific binding is total binding minus non specific binding.
Test substances are dissolved in 10 ml water (if necessary heated on a steambath for less than 5 min.) at a concentration of 2.2 mg/ml. 25-75% inhibition of specific binding must be obtained before calculation of IC50.
The test value will be given as IC50 (the concentration (nM) of the test substance which inhibits the specific binding of ^3H-Oxo by 50%).
(§1) IC50=(applied test substance concentration)×(Cx/Co−Cx)nM
(§2) where Co is specific binding in control assays and Cx is the specific binding in the test assay. (The calculations assume normal mass-action kinetics).

Series [2] concerns the target T1, muscarinic receptors (M1-site, pirenzepine sensitive site) (Rattus norvegicus, UniProt P08482).
T1 construct: Fresh cortex (0.1-1 g) from male Wistar rats (150-200 g) is homogenized; from tissue; host or cells: rat (male Wistar) cerebral cortex membranes
T1 sequence (P08482 1-460): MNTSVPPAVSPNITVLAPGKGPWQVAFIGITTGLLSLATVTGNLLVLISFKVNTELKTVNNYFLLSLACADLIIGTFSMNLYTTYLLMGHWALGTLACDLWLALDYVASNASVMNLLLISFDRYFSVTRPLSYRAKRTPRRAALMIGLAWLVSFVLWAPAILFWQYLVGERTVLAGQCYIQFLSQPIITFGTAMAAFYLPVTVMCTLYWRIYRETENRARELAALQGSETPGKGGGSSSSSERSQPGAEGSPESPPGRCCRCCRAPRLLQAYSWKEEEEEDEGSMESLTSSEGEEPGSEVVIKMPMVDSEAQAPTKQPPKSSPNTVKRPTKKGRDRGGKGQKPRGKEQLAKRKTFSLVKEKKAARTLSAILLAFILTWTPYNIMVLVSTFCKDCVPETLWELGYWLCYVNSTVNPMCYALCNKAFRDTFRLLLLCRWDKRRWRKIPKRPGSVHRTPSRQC
Briefly: Inhibition of 3H-PRZ (pirenzepine, [N-methyl-3H]) binding to rat cerebral cortex membranes. Conditions: 1.0 nM 3H-Pirenzepine, 60 min at 20° C. As for the experimental part: Furthermore the pharmacological properties of the compounds of the invention can also be illustrated by determining their capability to inhibit ^3H-PRZ (pirenzepine, [N-methyl-^3H]) binding to rat cerebral cortex membranes. Pirenzepine binds selectively to subtype of muscarinic receptors. Historically the type is named the M1-site, whereas pirenzepine sensitive site would be more appropriate. Although selective for M1-sites pirenzepine also interact with M2-sites.
All preparations are performed at 0-4° C. unless otherwise indicated. Fresh cortex (0.1-1 g) from male Wistar rats (150-200 g) is homogenized for 5-10 s. in 10 ml 20 mM Hepes pH: 7.4, with an Ultra-Turrax homogenizer. The homogenizer is rinsed with 2×10 ml of buffer and the combined suspension centrifuged for 15 min at 40,000×g. The pellet is washed three times with buffer. In each step the pellet is homogenized as before in 3×10 ml of buffer and centrifuged for 10 min at 40,000×g.
The final pellet is homogenized in 20 mM Hepes pH: 7.4 (100 ml per g of original tissue) and used for binding assay. Aliquots of 0.5 ml is added 20 μl of test solution and 25 μl of ^3H-Pirenzepine (1.0 nM, final conc.), mixed and incubated for 60 min at 20° C. Non-specific binding is determined in triplicate using atropine (1 μg/ml, final conc.) as the test substance. After incubation samples are added 5 ml of ice-cold buffer and poured directly onto Whatman GF/C glass fiber filters under suction and immediately washed 2 times with 5 ml of ice-cold buffer. The amount of radioactivity on the filters are determined by conventional liquid scintillation counting. Specific binding is total binding minus non-specific binding.
Test substances are dissolved in 10 ml water, at a concentration of 0.22 mg/ml. 25-75% inhibition of specific binding must be obtained before calculation of IC50.
The test value will be given as IC50 (the concentration (nM) of the test substance which inhibits the specific binding of ^3H-PRZ by 50%).
as §1, §2

In the case of `Fc1ccc(COc2nsnc2OC2CN3CCC2C3)cc1` (stereo not drawn) (as salt: oxalate) [Compound 9, Endo 3-(3-[4-fluorobenzyloxy]-1,2,5-thiadiazol-4-yloxy)-1-azabicyclo-[2.2.1]heptane, oxalate], the melting point lay in the range of 144 to 145 °C. As for `FC(F)(F)Oc1ccc(COc2nsnc2OC2CN3CCC2C3)cc1` (stereo not drawn) (as salt: oxalate) [Compound 14, Endo 3-(3-[4-trifluoromethoxybenzyloxy]-1,2,5-thiadiazol-4-yloxy)-1-azabicyclo[2.2.1]heptane, oxalate], the melting point is 116 to 119 °C. Same read-out and setting: next, `COc1cccc(C#CCOc2nsnc2OC2CN3CCC2C3)c1` (stereo not drawn) (as salt: oxalate) [Compound 6, Endo 3-(3-[3-(3-methoxyphenyl)-2-propynyl-1-oxy]-1,2,5-thiadiazol-4-yloxy)-1-azabicyclo[2.2.1]heptane, oxalate]: 142 to 143 °C.

With `C(CC1CC1)Oc1nsnc1OC1CN2CCC1C2` (stereo not drawn) (as salt: oxalate) [Compound 8, Endo 3-(3-[2-cyclopropylethyl-1-oxy]-1,2,5-thiadiazol-4-yloxy)-1-azabicyclo[2.2.1]heptane, oxalate], the melting point fell in the range of 132 to 133 °C. The same measure, in the same setting: then `Fc1ccc(CSc2nsnc2OC2CN3CCC2C3)c(F)c1` (stereo not drawn) (as salt: oxalate) [Compound 33, Endo 3-(3-[2,4-difluorobenzylthio]-1,2,5-thiadiazol-4-yloxy)-1-azabicyclo-[2.2.1]heptane, oxalate], with 98 to 100 °C. In the case of `Clc1ccc(C#CCOc2nsnc2OC2CN3CCC2C3)cc1` (stereo not drawn) (as salt: oxalate) [Compound 18, Endo 3-(3-[3-(4-chlorophenyl)-2-propynyl-1-oxy]-1,2,5-thiadiazol-4-yloxy)-1-azabicyclo[2.2.1]heptane, oxalate], the melting point lay within 118 to 122 °C.

`CC=CCOc1nsnc1OC1CN2CCC1C2` (stereo not drawn) (as salt: oxalate) [Compound 10, Endo 3-(3-[2-butenyl-1-oxy]-1,2,5-thiadiazol-4-yloxy)-1-azabicyclo[2.2.1]heptane, oxalate]: the melting point lay within 129 to 131 °C. Regarding `CSCCOc1nsnc1OC1CN2CCC1C2` (stereo not drawn) [Compound 12, Endo 3-(3-methylthioethoxy-1,2,5-thiadiazol-4-yloxy)-1-azabicyclo-[2.2.1]heptane, oxalate], the IC50 worked out at 3.7 nM in series [1] and 29 nM in series [2]. The matching figures for `C(CC1CC1)Oc1nsnc1OC1CN2CCC1C2` (stereo not drawn) [Compound 8, Endo 3-(3-[2-cyclopropylethyl-1-oxy]-1,2,5-thiadiazol-4-yloxy)-1-azabicyclo[2.2.1]heptane, oxalate]: 4.9 nM and 9.8 nM.

Consider `FC(F)(F)COc1nsnc1OC1CN2CCC1C2` (stereo not drawn) [Compound 40, Endo 3-(3-[2,2,2-trifluoroethyl-1-oxy]-1,2,5-thiadiazol-4-yloxy)-1-azabicyclo[2.2.1]heptane, oxalate], for which the results for the IC50 in series [1] and in series [2] were 1.8 nM and 43 nM, respectively. `FC(F)(F)CCSc1nsnc1OC1CN2CCC1C2` (stereo not drawn) [Compound 29, Endo 3-(3-(3,3,3-trifluoropropylthio)-1,2,5-thiadiazol-4-yloxy)-1-azabicyclo-[2.2.1]heptane, oxalate]: the IC50 in series [1] was found to be 3.1 nM; in series [2], 9.1 nM. `CC=CCOc1nsnc1OC1CN2CCC1C2` (stereo not drawn) [Compound 10, Endo 3-(3-[2-butenyl-1-oxy]-1,2,5-thiadiazol-4-yloxy)-1-azabicyclo[2.2.1]heptane, oxalate]: the half-inhibitory concentration (IC50) in series [1] was determined as 5.3 nM; in series [2], 20 nM. With `Fc1cc(C(F)(F)F)ccc1COc1nsnc1OC1CN2CCC1C2` (stereo not drawn) [Compound 16, Endo 3-(3-[2-fluoro-4-(trifluoromethyl)-benzyloxy]-1,2,5-thiadiazol-4-yloxy)-1-azabicyclo[2.2.1]heptane, oxalate], the IC50 in series [1] came out at 148 nM; in series [2] it was 129 nM. For `C(#Cc1cccnc1)COc1nsnc1OC1CN2CCC1C2` (stereo not drawn) [Compound 23, Endo 3-(3-(3-pyridyl)-2-propyn-1-yloxy)-1,2,5-thiadiazol-4-yloxy)-1-azabicyclo[2.2.1]heptane, dioxalate] the same measures were 1.6 nM and 13 nM. The matching figures for `N#CCCSc1nsnc1OC1CN2CCC1C2` (stereo not drawn) [Compound 32, Endo 3-(3-[2-cyanoethylthio]-1,2,5-thiadiazol-4-yloxy)-1-azabicyclo-[2.2.1]heptane, oxalate]: 3.1 nM and 34 nM. As to `Fc1ccc(COc2nsnc2OC2CN3CCC2C3)cc1` (stereo not drawn) [Compound 9, Endo 3-(3-[4-fluorobenzyloxy]-1,2,5-thiadiazol-4-yloxy)-1-azabicyclo-[2.2.1]heptane, oxalate], the IC50 in series [1] was found to be 25 nM; in series [2], 30 nM. The matching figures for `C(#Cc1ccccc1)COc1nsnc1OC1CN2CCC1C2` (stereo not drawn) [Compound 5, Endo 3-(3-[3-phenyl-2-propynyl-1-oxy]-1,2,5-thiadiazol-4-yloxy)-1-azabicyclo[2.2.1]heptane, oxalate]: 10 nM and 14 nM. For `C(#Cc1cccs1)COc1nsnc1O[C@H]1CN2CC[C@@H]1C2` [Compound 37, Endo 3-(3-[3-(2-thienyl)-2-propyn-1-yloxy]-1,2,5-thiadiazol-4-yloxy)-1-azabicyclo[2.2.1]heptane, oxalate] the same measures were 2.2 nM and 8.7 nM. Consider `C(#Cc1ccccn1)COc1nsnc1OC1CN2CCC1C2` (stereo not drawn) [Compound 25, Endo 3-(3-(2-pyridyl)-2-propyn-1-yloxy)-1,2,5-thiadiazol-4-yloxy)-1-azabicyclo[2.2.1]heptane, dioxalate], for which the figures for the IC50 in series [1] and in series [2] were 1.7 nM and 4.5 nM, respectively. For `Fc1ccc(CSc2nsnc2OC2CN3CCC2C3)c(F)c1` (stereo not drawn) [Compound 33, Endo 3-(3-[2,4-difluorobenzylthio]-1,2,5-thiadiazol-4-yloxy)-1-azabicyclo-[2.2.1]heptane, oxalate] the same measures were 83 nM and 16 nM. Consider `COc1cccc(C#CC(Oc2nsnc2OC2CN3CCC2C3)C(C)C)c1` (stereo not drawn) [Compound 39, Endo 3-(3-[1-(3-methoxyphenyl)-4-methyl-1-pentyn-3-yloxy]-1,2,5-thiadiazol-4-yloxy)-1-azabicyclo[2.2.1]heptane, oxalate], for which the IC50 amounted to 105 nM in series [1] and 56 nM in series [2].

The values above are taken from US6720342B2, “Heterocyclic compounds and their preparation and use” (Novo Nordisk A/S, priority 1996, dated 2004).
